In patent publication US4978673A, “Organic salts of physostigmine derivatives” (priority 1987, dated 1990):
In brackets after ≈: the same amount, converted by molar mass.

How the values were obtained:
[1] = toxicity in the rat (LD50, oral); conditions: in vivo
in vivo = conditions: rat, po
water solubility = format: physicochemical

CCCCCCCCCNC(=O)Oc1ccc2c(c1)C1(C)CCN(C)C1N2C (centres unmarked) [***]
LD50 [1]: 50 mg/kg

CCCCNC(=O)Oc1ccc2c(c1)C1(C)CCN(C)C1N2C (centres unmarked) [**]
LD50 [1]: 6 mg/kg

CCCCCCCNC(=O)Oc1ccc2c(c1)C1(C)CCN(C)C1N2C (centres unmarked) [*]
LD50 (in vivo): 20 mg/kg

CCCCCCCNC(=O)Oc1ccc2c(c1)C1(C)CCN(C)C1N2C (centres unmarked) [Example 1]
solubility (water solubility; water): 700 mg/mL (≈ 1950 mM)

CCCCCCCNC(=O)Oc1ccc2c(c1)C1(C)CCN(C)C1N2C (centres unmarked) [corresponding non-salified derivative]
water solubility (in words) (water solubility; non-salified derivative): insoluble
